Laboratory results as given in PMC7835231, “Human organoid biofilm model for assessing antibiofilm activity of novel agents” (NPJ Biofilms and Microbiomes, 2021).
“Also recorded” adds a separate entry of the source.

Experiments:
[1] = system: MRSA-lux (MRSA SAP149) biofilm; experiment: One-day or three-day MRSA-lux biofilm on N/TERT epidermal skin model, CFU count and luminescence; type: cell-based, Staphylococcus aureus; conditions: for antibiofilm activity (CFU recovered) against pre-established MRSA-lux biofilm: peptide 0.1% topical, 5 to 6 biological replicates, Kruskal–Wallis, Dunn's test versus control; for geometric mean of MRSA-lux bacteria recovered: untreated 1.3 × 10^8 CFU/skin, geometric mean of 3 to 9 biological replicates
Source text: (§1) Bacterial strains used in this study include USA300-LAC[56] (referred to as MRSA), and a luminescent MRSA strain SAP149[57] (referred to as MRSA-lux), Pseudomonas aeruginosa strain PAO1[58] and a luminescent strain of P. aeruginosa[59] (PAO1-lux). Bacteria strains used for confocal microscopy imaging include S. aureus USA300-LAC transformed with a pKK22 plasmid expressing a far-red fluorescent protein (MRSA-FarRed), as well as P. aeruginosa PAO1 (PAO1-mCherry), transformed with an mCherry expressing plasmid, pMCh-23[60]. All S. aureus strains were grown overnight in TSB containing 1% D-glucose at 37 °C with shaking at 180 rpm, sub-cultured to mid-exponential growth phase in TSB 1% D-glucose. Bacteria were harvested and resuspended in sterile PBS to a concentration of 2 × 10^8 CFU/ml before seeding onto skin surface. All P. aeruginosa strains were grown in LB under the same conditions as mentioned above, subcultured in LB medium, and resuspended in PBS at 2 × 10^8 CFU/ml before seeding.
(§2) Skin models were established using a modification of described methods. Briefly, 3 × 10^5 N/TERT cells in 400 μl DermaLife K Keratinocyte Complete Medium with LifeFactors (5 μg/ml rh Insulin LifeFactor, 6 mM L-Glutamine LifeFactor, 1 μM Epinephrine LifeFactor, 5 μg/ml Apo-Transferrin LifeFactor, 0.5 ng/ml rh TGF-α LifeFactor, 0.4% Extract P LifeFactor, 100 ng/ml Hydrocortisone Hemisuccinate LifeFactor) were seeded onto each filter insert (ThinCert™ Cell culture insert, Greiner bio-one, Kremsmünster, Austria) in a 12-well ThinCert™ Plate (Greiner bio-one) holding 4.1 ml/well DermaLife K Keratinocyte Complete Medium with LifeFactors below each filter. Medium was refreshed every second day until N/TERT cells reached confluency in 3-4 days. Culture media both on top and below the filter were then switched to DMEM/Ham’s F-12/CnT-Prime 3D Barrier Media in a 3:1:4 ratio supplemented with 0.1 μg/ml hydrocortisone, 0.125 μg/ml isoproterenol, 0.25 μg/ml bovine insulin, 26.5 pM selenious acid, 5 mM L-serine, 5 μM L-carnitine, 1.6 mg/ml BSA, 25 μM palmitic acid, 15 μM linoleic acid and 7 μM arachidonic acid. Medium on top of the filters was removed the next day to allow air-exposure, which induced differentiation and stratification of the epidermis. After 2–3 days, linoleic acid concentration was increased to 30 μM. The skin samples were cultured for 10 days at air–liquid interface at 37 °C and 7.3% CO2 with medium being refreshed every 2–3 days.
(§3) One million MRSA or PAO1, or luminescent MRSA-lux or PAO1-lux, or fluorescently-tagged MRSA-FarRed or PAO1-mCherry resuspended in PBS were seeded (5 μl of 2 × 10^8 CFU/ml) in the center of the skin model, cultured at 37 °C and 7.3% CO2 to allow the establishment of bacterial biofilms. One day or three days after inoculation, 30 μl of 0.1% (1 mg/ml) or 0.4% (4 mg/ml) DJK-5 peptide was added on top of the biofilm for 4 h. […] To visualize biofilms, skin samples seeded with luminescent bacteria were imaged using the ChemiDoc Imaging System (Bio-Rad). To quantify bacterial counts, skin samples, together with the filter inserts, were excised using a disposable scalpel (VWR, Radnor, PA), sonicated in 1.5 ml PBS, vortexed, serially diluted, and plated on LB agar plates. The cut-off of the Y-axis in each figure indicates the detection limit of CFU count while bars indicate the geometric mean of recovered CFU.

PAO1-lux biofilm = experiment: One-day or three-day PAO1-lux biofilm on N/TERT epidermal skin model, CFU count and luminescence; type: cell-based, Pseudomonas aeruginosa; conditions: for antibiofilm activity (CFU recovered) against pre-established PAO1-lux biofilm: peptide 0.1% topical, 4 h, 5 to 6 biological replicates, Kruskal–Wallis, Dunn's test versus control
Source text: as §1, §2, §3

[2] = system: MRSA (USA300-LAC) biofilm on burned skin; experiment: MRSA USA300 thermal wounding skin model, colony count; type: cell-based, Staphylococcus aureus
Method: as §3
Thermal damage was created by burning 10-day air–liquid interface skins at 100 °C for 4 s with a digital soldering iron (FX888D, American Hakko Products, Inc., Santa Clarita, CA). The skin filter inserts were transferred to 12-well plates (Sigma-Aldrich) containing 800 μl/well fresh culture medium prior to bacterial infection. MRSA biofilm was established by seeding 2 × 10^6 CFU in 5 μl PBS on top of the thermal damaged skin and cultured at 37 °C and 5% CO2 for 24 h. […]

IL-1β production = experiment: IL-1β ELISA of culture supernatant, MRSA-infected burned skin; type: cell-based, human
Method: (§4) Thermal damage was created by burning 10-day air–liquid interface skins at 100 °C for 4 s with a digital soldering iron (FX888D, American Hakko Products, Inc., Santa Clarita, CA). The skin filter inserts were transferred to 12-well plates (Sigma-Aldrich) containing 800 μl/well fresh culture medium prior to bacterial infection. MRSA biofilm was established by seeding 2 × 10^6 CFU in 5 μl PBS on top of the thermal damaged skin and cultured at 37 °C and 5% CO2 for 24 h. DJK-5 peptide (30 μl of 0.4%) alone or in combination with 0.01%, 0.1%, or 0.4% 1002 was administered on top of the pre-formed biofilm. Skin samples were collected 24 h post peptide treatment for colony count.
(§5) At the time of colony quantification, culture supernatants below the skin filter inserts were harvested for measuring cytotoxicity by the lactate dehydrogenase assay using a Cytotoxicity Detection Kit (Roche Diagnostics, Basel, Switzerland), according to the manufacturer’s instructions. Untreated skin samples or skin samples treated with 5% Triton X-100 were used as negative (0% toxicity) or positive (100% toxicity) control, respectively. Culture supernatants were also used to measure IL-1β and IL-8 production using ELISA kits from eBioscience (San Diego, CA).

N/TERT epidermal skin [3] = type: cell-based, human
Method: as §4, §5

IL-8 production [4] = type: cell-based, human
Source text: as §5, with “CA). […]” for “CA).”
(§6) Supplementary Fig 4. Burned skin without infection and 2-day biofilm on skin without thermal damage had minimal changes in cytotoxicity and cytokine production compared to skin control without infection and thermal damage.
(§7) Thermally damaged epidermal skin was mock infected with PBS for 24 hours, followed by 24 hours treatment with 0.4% DJK-5 or water (a, b). The cytotoxicity (a) and IL-8 production (b) from culture supernatant beneath skin was determined. One day pre-established MRSA-lux and PAO1-lux skin biofilm was treated with vehicle control-water for 24 hours, changes in luminescence signal (c), bacteria load (d), skin cytotoxicity (e) and IL-8 level (f) was quantified. Error bars indicate mean with SD (n=3). One-way ANOVA, Dunnett’s multiple comparisons test (* P ≤ 0.05; ** P ≤ 0.01). […]

N/TERT epidermal skin [5] = type: cell-based, human; remark: listed apart in the source
Source text: as §5, with “CA). […]” for “CA).”
as §6, §7

[6] = system: P. aeruginosa PAO1 biofilm; experiment: One-day PAO1 biofilm on N/TERT epidermal skin model, CFU count; type: cell-based, Pseudomonas aeruginosa; conditions: 1-day biofilm; 0.4% (120 µg) DJK-5, 4 h; control 1.3 × 10^8 CFU/skin; geometric mean of 5 to 8 biological replicates
Source text: as §1, with “All P. aeruginosa strains were grown in LB under the same conditions as mentioned above, subcultured in LB medium, and resuspended in PBS at 2 × 10^8 CFU/ml before seeding.” left out
One million MRSA or PAO1, or luminescent MRSA-lux or PAO1-lux, or fluorescently-tagged MRSA-FarRed or PAO1-mCherry resuspended in PBS were seeded (5 μl of 2 × 10^8 CFU/ml) in the center of the skin model, cultured at 37 °C and 7.3% CO2 to allow the establishment of bacterial biofilms. […] To quantify bacterial counts, skin samples, together with the filter inserts, were excised using a disposable scalpel (VWR, Radnor, PA), sonicated in 1.5 ml PBS, vortexed, serially diluted, and plated on LB agar plates. […]

IL-8 production [7] = experiment: IL-8 ELISA of culture supernatant, MRSA-infected burned skin; type: cell-based, human; conditions: burned skin with MRSA biofilm; 0.4% DJK-5, 24 h; ELISA of media below filter
Method: as §4, §5

Molecule: C/C(=C\C(=O)OCCCCCCCCC(=O)O)C[C@@H]1OC[C@H](C[C@@H]2O[C@H]2[C@@H](C)[C@H](C)O)[C@@H](O)[C@H]1O [mupirocin, reference compound]
- bacterial load of MRSA-lux in the biofilm ([1]; 1-day biofilm, 1% mupirocin dissolved in 10% DMSO, topical, 4 h): did not have appreciable impact; also recorded: almost inactive

Molecule: KRIRWVILWRQV [RI-1002, synthetic host defense peptide]
- antibiofilm activity (CFU recovered) against pre-established PAO1-lux biofilm (PAO1-lux biofilm; 1-day biofilm): comparable antibiofilm activity against MRSA-lux and PAO1-lux
- antibiofilm activity (CFU recovered) against pre-established MRSA-lux biofilm ([1]; 1-day biofilm, 4 h): comparable antibiofilm activity against MRSA-lux and PAO1-lux

Molecule: RRWIRVAVILRV [RI-1018, synthetic host defense peptide]
- antibiofilm activity (CFU recovered) against pre-established PAO1-lux biofilm (PAO1-lux biofilm; 1-day biofilm): comparable antibiofilm activity against MRSA-lux and PAO1-lux
- antibiofilm activity (CFU recovered) against pre-established MRSA-lux biofilm ([1]; 1-day biofilm, 4 h): comparable antibiofilm activity against MRSA-lux and PAO1-lux

Molecule: VQRWLIVWRIRK [compound 1002, Innate defense regulator peptide, a bactenecin derivative; anti-inflammatory synthetic HDP]
- antibiofilm activity (CFU recovered) against pre-established PAO1-lux biofilm (PAO1-lux biofilm; 1-day biofilm): All of the peptides except 1002 significantly reduced
- reduction in bacterial count compared to untreated biofilms ([2]; burned skin with MRSA biofilm, 0.4% 1002 alone, 24 h): 17 fold
- antibiofilm activity (CFU recovered) against pre-established MRSA-lux biofilm ([1]; 1-day biofilm, 4 h): All of the peptides except 1002 significantly reduced
- pro-inflammatory IL-1β release from MRSA infected burned skin (IL-1β production; 1002 treatment alone, 24 h, ELISA): significant decreases
- cytotoxicity from MRSA infected burned skin (N/TERT epidermal skin [3]): significant decreases

Molecule: VQWRAIRVRVIR [DJK-5, D-enantiomeric antibiofilm synthetic host defense peptide]
- geometric mean of recovered PAO1-lux bacteria (PAO1-lux biofilm; 1-day biofilm, 0.4% (120 µg) DJK-5, 4 h, control 8.9 × 10^7 CFU/skin, geometric mean of 5 to 8 biological replicates): 1.9 × 10^2 CFU/skin
- luminescence of PAO1-lux biofilm (PAO1-lux biofilm; 1-day biofilm, 0.4% DJK-5, 4 h): evident reduction in the luminescence signal
- antibiofilm activity (CFU recovered) against pre-established PAO1-lux biofilm (PAO1-lux biofilm; 1-day biofilm): comparable antibiofilm activity against MRSA-lux and PAO1-lux
- bacterial burden (colony count) (PAO1-lux biofilm; 3-day PAO1-lux biofilm, 0.4% DJK-5, 4 h): significantly decreased bacterial burden
- luminescence of PAO1-lux biofilm (PAO1-lux biofilm; 3-day biofilm, 0.4% DJK-5, 4 h): wiped out luminescence signal
- IL-8 production compared to control skin (IL-8 production [4]): slightly increased IL-8 production
- increase in observed cytotoxicity compared to control skin (N/TERT epidermal skin [5]): ~ 5%
- geometric mean of recovered non-luminescent PAO1 bacteria [6]: 4.9 × 10^3 CFU/skin
- bacterial load on burned skin ([2]; skin burned 100 °C 4 s, 24 h MRSA biofilm, 0.4% DJK-5 (120 μg) in PBS topical, control 7.8 × 10^8 CFU/skin, geometric mean): 3.2 × 10^5 CFU/skin
- luminescence of MRSA-lux biofilm ([1]; 1-day biofilm, 0.1% (30 μg total peptide), 4 h, ChemiDoc imaging): reduced the area of colonization
- geometric mean of MRSA-lux bacteria recovered ([1]; 1-day biofilm, 0.1% DJK-5 (30 μg) topical, 4 h): 1.6 × 10^6 CFU/skin
- luminescence of MRSA-lux biofilm ([1]; 1-day biofilm, 0.4% (120 μg), 4 h, ChemiDoc imaging): completely abolished the luminescence
- geometric mean of MRSA-lux bacteria recovered ([1]; 1-day biofilm, 0.4% DJK-5 (120 μg) topical, 4 h): 2.1 × 10^4 CFU/skin
- antibiofilm activity (CFU recovered) against pre-established MRSA-lux biofilm ([1]; 1-day biofilm, 4 h): comparable antibiofilm activity against MRSA-lux and PAO1-lux; also recorded: superior activity in eradicating MRSA biofilm
- reduction of bacterial load ([1]; 3-day MRSA-lux biofilm, 0.4% DJK-5, within 4 h of treatment, versus untreated): 4 log orders of magnitude
- luminescence of MRSA-lux biofilm ([1]; 3-day biofilm, 0.4% DJK-5, 4 h): successfully wiped out the bacterial luminescence
- IL-1β production (IL-1β production; burned skin with MRSA biofilm, 0.4% DJK-5, 24 h, ELISA of media below filter): significantly suppressed
- IL-8 production (IL-8 production [7]): significantly suppressed

Molecule: VQWRRIRVWVIR [DJK-6, synthetic host defense peptide]
- antibiofilm activity (CFU recovered) against pre-established MRSA-lux biofilm ([1]; 1-day biofilm, 4 h): superior effects in eradicating MRSA-lux biofilms; also recorded: superior activity in eradicating MRSA biofilm

Molecule: VRLIVAVRIWRR [compound 1018, synthetic host defense peptide]
- antibiofilm activity (CFU recovered) against pre-established MRSA-lux biofilm ([1]; 1-day biofilm, 4 h): superior effects in eradicating MRSA-lux biofilms; also recorded: superior activity in eradicating MRSA biofilm
